According to the NIST ThermoML archive (doi:10.1021/je060411g):
Numbers after ± are expanded uncertainties.

Legend:
[1] = molar heat capacity at constant pressure; settings: 101.33 kPa
[2] = Glass

CC(C)CCO [3-methylbutan-1-ol]
molar heat capacity at constant pressure ([1]; 79.29 K, Glass): 64.16 ± 1.6 J/K/mol | molar heat capacity at constant pressure ([1]; 79.93 K, Glass): 64.23 ± 1.6 J/K/mol | molar heat capacity at constant pressure ([1]; 81.22 K, Glass): 65.13 ± 1.6 J/K/mol | molar heat capacity at constant pressure ([1]; 83.16 K, Glass): 66.6 ± 1.6 J/K/mol | molar heat capacity at constant pressure ([1]; 85.07 K, Glass): 67.98 ± 1.7 J/K/mol | molar heat capacity at constant pressure ([1]; 86.97 K, Glass): 69.22 ± 1.7 J/K/mol | molar heat capacity at constant pressure ([1]; 88.88 K, Glass): 70.53 ± 1.7 J/K/mol | molar heat capacity at constant pressure ([1]; 90.79 K, Glass): 71.96 ± 2.1 J/K/mol | molar heat capacity at constant pressure ([1]; 92.71 K, Glass): 73.36 ± 2.1 J/K/mol | molar heat capacity at constant pressure ([1]; 94.62 K, Glass): 74.71 ± 2.2 J/K/mol | molar heat capacity at constant pressure ([1]; 96.54 K, Glass): 76.12 ± 2.2 J/K/mol | molar heat capacity at constant pressure ([1]; 98.47 K, Glass): 77.7 ± 2.2 J/K/mol | molar heat capacity at constant pressure ([1]; 100.4 K, Glass): 79.43 ± 2.2 J/K/mol | molar heat capacity at constant pressure ([1]; 102.33 K, Glass): 80.27 ± 2.3 J/K/mol | molar heat capacity at constant pressure ([1]; 104.26 K, Glass): 81.54 ± 2.3 J/K/mol | molar heat capacity at constant pressure ([1]; 106.19 K, Glass): 83.08 ± 2.3 J/K/mol | molar heat capacity at constant pressure ([1]; 108.13 K, Glass): 84.68 ± 2.3 J/K/mol | molar heat capacity at constant pressure ([1]; 110.07 K, Glass): 86.19 ± 2.4 J/K/mol | molar heat capacity at constant pressure ([1]; 112.01 K, Glass): 87.96 ± 2.4 J/K/mol | molar heat capacity at constant pressure ([1]; 113.94 K, Glass): 90.43 ± 2.4 J/K/mol | molar heat capacity at constant pressure ([1]; 115.88 K, Glass): 94.62 ± 2.5 J/K/mol | molar heat capacity at constant pressure ([1]; 123.04 K, Liquid): 144.09 ± 3.5 J/K/mol | molar heat capacity at constant pressure ([1]; 124.93 K, Liquid): 144.11 ± 3.5 J/K/mol | molar heat capacity at constant pressure ([1]; 126.89 K, Liquid): 144.29 ± 3.5 J/K/mol | molar heat capacity at constant pressure ([1]; 128.85 K, Liquid): 144.62 ± 3.5 J/K/mol | molar heat capacity at constant pressure ([1]; 130.82 K, Liquid): 144.96 ± 3.5 J/K/mol | molar heat capacity at constant pressure ([1]; 132.79 K, Liquid): 145.22 ± 3.5 J/K/mol | molar heat capacity at constant pressure ([1]; 134.76 K, Liquid): 145.47 ± 3.5 J/K/mol | molar heat capacity at constant pressure ([1]; 136.73 K, Liquid): 145.74 ± 3.5 J/K/mol | molar heat capacity at constant pressure ([1]; 138.7 K, Liquid): 146.13 ± 3.5 J/K/mol | molar heat capacity at constant pressure ([1]; 140.67 K, Liquid): 146.33 ± 3.5 J/K/mol | molar heat capacity at constant pressure ([1]; 142.65 K, Liquid): 146.61 ± 3.5 J/K/mol | molar heat capacity at constant pressure ([1]; 144.62 K, Liquid): 146.82 ± 3.5 J/K/mol | molar heat capacity at constant pressure ([1]; 146.59 K, Liquid): 147.14 ± 3.5 J/K/mol | molar heat capacity at constant pressure ([1]; 148.57 K, Liquid): 147.5 ± 3.5 J/K/mol | molar heat capacity at constant pressure ([1]; 150.54 K, Liquid): 147.86 ± 3.5 J/K/mol | molar heat capacity at constant pressure ([1]; 152.52 K, Liquid): 148.08 ± 3.6 J/K/mol | molar heat capacity at constant pressure ([1]; 154.49 K, Liquid): 148.41 ± 3.6 J/K/mol | molar heat capacity at constant pressure ([1]; 156.46 K, Liquid): 148.76 ± 3.6 J/K/mol | molar heat capacity at constant pressure ([1]; 158.43 K, Liquid): 148.95 ± 3.6 J/K/mol | molar heat capacity at constant pressure ([1]; 160.41 K, Liquid): 149.4 ± 3.6 J/K/mol | molar heat capacity at constant pressure ([1]; 162.38 K, Liquid): 149.76 ± 3.6 J/K/mol | molar heat capacity at constant pressure ([1]; 164.35 K, Liquid): 149.96 ± 3.6 J/K/mol | molar heat capacity at constant pressure ([1]; 166.32 K, Liquid): 150.38 ± 3.6 J/K/mol | molar heat capacity at constant pressure ([1]; 168.29 K, Liquid): 150.9 ± 3.6 J/K/mol | molar heat capacity at constant pressure ([1]; 170.27 K, Liquid): 151.21 ± 3.6 J/K/mol | molar heat capacity at constant pressure ([1]; 172.24 K, Liquid): 151.76 ± 3.6 J/K/mol | molar heat capacity at constant pressure ([1]; 174.21 K, Liquid): 152.03 ± 3.6 J/K/mol | molar heat capacity at constant pressure ([1]; 176.19 K, Liquid): 152.42 ± 3.6 J/K/mol | molar heat capacity at constant pressure ([1]; 178.16 K, Liquid): 152.92 ± 3.6 J/K/mol | molar heat capacity at constant pressure ([1]; 180.14 K, Liquid): 153.49 ± 3.7 J/K/mol | molar heat capacity at constant pressure ([1]; 182.11 K, Liquid): 153.84 ± 3.7 J/K/mol | molar heat capacity at constant pressure ([1]; 184.09 K, Liquid): 154.42 ± 3.7 J/K/mol | molar heat capacity at constant pressure ([1]; 186.07 K, Liquid): 154.93 ± 3.7 J/K/mol | molar heat capacity at constant pressure ([1]; 188.05 K, Liquid): 155.51 ± 3.7 J/K/mol | molar heat capacity at constant pressure ([1]; 190.03 K, Liquid): 156.14 ± 3.7 J/K/mol | molar heat capacity at constant pressure ([1]; 192.01 K, Liquid): 156.62 ± 3.7 J/K/mol | molar heat capacity at constant pressure ([1]; 193.99 K, Liquid): 157.15 ± 3.7 J/K/mol | molar heat capacity at constant pressure ([1]; 195.96 K, Liquid): 157.72 ± 3.8 J/K/mol | molar heat capacity at constant pressure ([1]; 197.94 K, Liquid): 158.12 ± 3.8 J/K/mol | molar heat capacity at constant pressure ([1]; 199.92 K, Liquid): 158.79 ± 3.8 J/K/mol | molar heat capacity at constant pressure ([1]; 201.91 K, Liquid): 159.5 ± 3.8 J/K/mol | Glass transition temperature [2]: -155 ± 3 °C
